Active and inactive are the calls of the source. The rule behind the calls is not given here.

For the first experiment, the system named is Escherichia coli. Description: Antimicrobial activity against Escherichia coli ATCC 25922 assessed as induction of changes in mass spectral profile of bacteria by measuring decrease in peak at m/z 6320 and increase in peak at m/z 6405 at 1/16 to 1 times MIC uM by MALDI-TOF MS analysis. The experiment is classed as functional, organism-based.
Regarding `CC1(C)S[C@@H]2[C@H](NC(=O)[C@H](N)c3ccc(O)cc3)C(=O)N2[C@H]1C(=O)O`, the Activity entry is “Dose-dependent effect”.

Another experiment relates to Escherichia coli. Briefly: Antimicrobial activity against Escherichia coli ATCC 25922 assessed as induction of changes in mass spectral profile of bacteria 1 times MIC uM by MALDI-TOF MS analysis. The experiment is classed as functional, organism-based.
In the case of `CO/N=C(\C(=O)N[C@@H]1C(=O)N2C(C(=O)O)=C(COC(N)=O)CS[C@H]12)c1ccco1`, the result was Active.

As for `CC1(C)S[C@@H]2[C@H](NC(=O)Cc3ccccc3)C(=O)N2[C@H]1C(=O)O`, the result was Active.

As to `CO/N=C(\C(=O)N[C@@H]1C(=O)N2C(C(=O)O)=C(COC(C)=O)CS[C@H]12)c1csc(N)n1`, the outcome was Active.

Consider `CC1(C)S[C@@H]2[C@H](NC(=O)[C@H](N)c3ccc(O)cc3)C(=O)N2[C@H]1C(=O)O`, for which the outcome was Active.

`CN[C@H](CC(C)C)C(=O)N[C@H]1C(=O)N[C@@H](CC(N)=O)C(=O)N[C@H]2C(=O)N[C@H]3C(=O)N[C@H](C(=O)N[C@H](C(=O)O)c4cc(O)cc(O)c4-c4cc3ccc4O)[C@H](O)c3ccc(c(Cl)c3)Oc3cc2cc(c3O[C@@H]2O[C@H](CO)[C@@H](O)[C@H](O)[C@H]2O[C@H]2C[C@](C)(N)[C@H](O)[C@H](C)O2)Oc2ccc(cc2Cl)[C@H]1O`: the result was Active.

Source of the values: ChEMBL document CHEMBL4619716, “Machine Learning in Mass Spectrometry: A MALDI-TOF MS Approach to Phenotypic Antibacterial Screening” (2020).
